Ten compounds from PMC6264296, “1,3-Substituted Imidazolidine-2,4,5-triones: Synthesis and Inhibition of Cholinergic Enzymes” (Molecules, 2011) can be followed below.

Data set [1] addresses T1, acetylcholinesterase from electric eel (Electrophorus electricus, UniProt O42275).
T1 construct: purchased Sigma
Put plainly: biochemical. The method, then:
(§1) The ability of all tested compounds to inhibit acetylcholinesterase from electric eel (Electrophorus electricus L.) and butyrylcholinesterase from equine serum (both purchased from Sigma) was tested. […] The IC50 values were determined by the spectrophotometric Ellman’s method.
(§2) The Ellman’s method is a simple, rapid and direct method to determine the SH and –S–S– group content in proteins. This method is widely used for measuring of cholinesterase activity and effectivity of cholinesterase inhibitors. Cholinesterase activity is measured indirectly by quantifying the concentration of 5-thio-2-nitrobenzoic acid (TNB) ion formed in the reaction between the thiol reagent 5,5′-dithiobis-2-nitrobenzoic acid (DTNB) and thiocholine, a product of substrate (i.e., acetylthiocholine, ATCh) hydrolysis by the cholinesterase. All tested compounds were dissolved in dioxane (concentration 0.01 M) and then diluted in demineralized water (concentration 0.001 M and 0.0001 M). The procedure of determination of IC50 is in detail described in [49]. For determination of IC50 values the inhibition was determined at 12 different compound concentrations with three replicates.

The target in data set [2] is T2, butyrylcholinesterase from equine serum (Equus caballus, UniProt P81908).
T2 construct: butyrylcholinesterase isolated from equine serum; purchased Sigma; host or cells: equine serum
In words: biochemical. The method, then: as §1, §2

Data set [3] can be described thus: Partition coefficient log Kow (n-octanol/water), shake-flask method. It is filed as physicochemical. The following applies: mean ± SD (n = 3 experiments). As for the experimental part:
Before the partition coefficient is determined, the two solvents are mutually saturated at the temperature of the experiment. To do this, it is practical to shake two large stock bottles, one containing n-octanol and a sufficient quantity of water, and the other containing water and a sufficient quantity of n-octanol, for 24 hours on a mechanical shaker and then to let them stand long enough to allow the phases to separate.
The procedure of determination was the following: n-Octanol (2 mL) was placed in a test tube. Then an octanol solution of the chosen inhibitor (15 μL, 0.01 M) was added. Mixture was intensively shaken for 15 min. This mixture (1 mL) was placed into the cell, and its absorbance at the absorption maximum wavelength was measured. The reference solution was n-octanol. The value of absorbance corresponding to 100% of the chosen inhibitor in n-octanol was obtained. An n-octanol solution of the chosen inhibitor (0.01 M, 15 μL) was added into the mixture of n-octanol and water (1:1, total volume 4 mL). The mixture was intensively shaken for 15 min and then centrifuged (3,000 rpm, 10 min). One mL of the n-octanol layer was put into the cell, and its absorbance at the wavelength of absorption maximum was measured. The comparative solution was n-octanol again. The percentage content of chosen inhibitor in the octanol layer (%) was obtained. The n-octanol/water partition coefficient is defined as Pow = c1/c2, where c1 and c2 are molar concentrations of tested compounds in n-octanol and water. For each compound, at least three determinations were performed.

The mark [4] stands for this setting: electric eel AChE, Ellman's method, mean ± SD (n = 3 experiments), read-out: AChE IC50.
The mark [5] stands for this setting: equine serum BChE, Ellman's method, mean ± SD (n = 3 experiments), read-out: BChE IC50.

The IC50 is the concentration that inhibits the measured activity by half.

Where two headings read alike, the source gives them in different places.

T2 sequence (P81908 whole entry): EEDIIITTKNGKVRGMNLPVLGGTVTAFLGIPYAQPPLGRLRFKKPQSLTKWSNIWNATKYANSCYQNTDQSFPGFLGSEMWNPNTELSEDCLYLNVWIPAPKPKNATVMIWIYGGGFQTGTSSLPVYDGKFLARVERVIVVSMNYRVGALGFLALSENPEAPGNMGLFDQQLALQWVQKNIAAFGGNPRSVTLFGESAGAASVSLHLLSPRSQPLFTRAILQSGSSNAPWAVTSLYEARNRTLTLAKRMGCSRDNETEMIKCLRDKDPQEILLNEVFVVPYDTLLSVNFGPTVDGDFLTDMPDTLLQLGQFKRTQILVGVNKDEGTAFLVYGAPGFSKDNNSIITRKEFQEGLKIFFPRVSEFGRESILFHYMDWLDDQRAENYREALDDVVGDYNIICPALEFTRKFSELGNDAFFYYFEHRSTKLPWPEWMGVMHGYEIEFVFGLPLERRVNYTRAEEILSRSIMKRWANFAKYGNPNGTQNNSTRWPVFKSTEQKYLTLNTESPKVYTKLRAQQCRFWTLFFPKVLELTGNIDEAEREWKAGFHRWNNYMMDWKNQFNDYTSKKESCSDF
T1 sequence (O42275 24-633): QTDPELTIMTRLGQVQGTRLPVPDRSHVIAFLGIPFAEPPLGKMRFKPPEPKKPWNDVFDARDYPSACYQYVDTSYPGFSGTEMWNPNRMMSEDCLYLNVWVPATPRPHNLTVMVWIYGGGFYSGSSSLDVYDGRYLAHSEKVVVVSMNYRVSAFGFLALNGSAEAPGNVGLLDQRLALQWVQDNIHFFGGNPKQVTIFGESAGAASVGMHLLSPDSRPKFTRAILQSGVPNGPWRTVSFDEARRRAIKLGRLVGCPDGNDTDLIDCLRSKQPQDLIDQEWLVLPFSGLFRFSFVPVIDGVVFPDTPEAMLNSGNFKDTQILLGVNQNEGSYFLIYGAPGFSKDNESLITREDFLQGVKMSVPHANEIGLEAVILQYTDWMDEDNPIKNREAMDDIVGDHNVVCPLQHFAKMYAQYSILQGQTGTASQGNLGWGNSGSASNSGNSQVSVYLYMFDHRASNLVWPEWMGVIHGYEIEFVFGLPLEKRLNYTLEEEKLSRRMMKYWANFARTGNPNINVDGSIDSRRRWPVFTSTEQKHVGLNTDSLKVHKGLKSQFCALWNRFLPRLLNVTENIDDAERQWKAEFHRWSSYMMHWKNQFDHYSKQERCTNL

Consider `C[C@H](c1nc2ccc(F)cc2s1)N1C(=O)C(=O)N(c2ccccc2)C1=O` [Compound 3a, 1-[(1R)-1-(6-Fluoro-1,3-benzothiazol-2-yl)ethyl]-3-phenylimidazolidine-2,4,5-trione], for which the IC50 worked out at 21.4 ± 0.19 µM in data set [1] (setting [4]) and 14.5 ± 0.21 µM in data set [2] (setting [5]).
Take `C[C@H](c1nc2ccc(F)cc2s1)N1C(=O)C(=O)N(c2cccc(C(F)(F)F)c2)C1=O` [Compound 3b, 1-(3-Trifluoromethylphenyl)-3-[(1R)-1-(6-fluoro-1,3-benzothiazol-2-yl)ethyl]imidazolidine-2,4,5-trione]: the IC50 is 23.4 ± 0.28 µM in data set [1] (setting [4]) and 17.4 ± 0.37 µM in data set [2] (setting [5]). Besides, the “log Kow” value in data set [3] is given as 1.12 ± 0.15.
The matching figures for `COc1ccc(N2C(=O)C(=O)N([C@H](C)c3nc4ccc(F)cc4s3)C2=O)cc1` [Compound 3c, 1-(4-Methoxyphenyl)-3-[(1R)-1-(6-fluoro-1,3-benzothiazol-2-yl)ethyl]imidazolidine-2,4,5-trione]: 22.4 ± 0.21 µM, 13.2 ± 0.22 µM and 0.69 ± 0.02.
As to `CC(C)c1ccc(N2C(=O)C(=O)N([C@H](C)c3nc4ccc(F)cc4s3)C2=O)cc1` [Compound 3d, 1-(4-Isopropylphenyl)-3-[(1R)-1-(6-fluoro-1,3-benzothiazol-2-yl)ethyl]imidazolidine-2,4,5-trione], the IC50 in data set [1] (setting [4]) turned out to be 16.6 ± 0.29 µM; in data set [2] (setting [5]), 1.66 ± 0.14 µM.
Turning to `C[C@H](c1nc2ccc(F)cc2s1)N1C(=O)C(=O)N(c2ccc(Cl)cc2)C1=O` [Compound 3e, 1-(4-Chlorophenyl)-3-[(1R)-1-(6-fluoro-1,3-benzothiazol-2-yl)ethyl]imidazolidine-2,4,5-trione], the IC50 was 13.8 ± 0.13 µM in data set [1] and 25.7 ± 0.29 µM in data set [2].
With `C[C@H](c1nc2ccc(F)cc2s1)N1C(=O)C(=O)N(c2ccc(C#N)cc2)C1=O` [Compound 3f, 1-(4-Cyanophenyl)-3-[(1R)-1-(6-fluoro-1,3-benzothiazol-2-yl)ethyl]imidazolidine-2,4,5-trione], the IC50 in data set [1] (setting [4]) came out at 19.1 ± 0.27 µM; in data set [2] (setting [5]), 10.5 ± 0.18 µM. Further, the “log Kow” value in data set [3] is 0.41 ± 0.02; in data set [3] (listed as 4f), “lowest lipophilicity”.
For the compound `CC(C)c1cccc(C(C)C)c1N1C(=O)C(=O)N([C@H](C)c2nc3ccc(F)cc3s2)C1=O` [Compound 3g, 1-(2,6-Diisopropylphenyl)-3-[(1R)-1-(6-fluoro-1,3-benzothiazol-2-yl)ethyl]imidazolidine-2,4,5-trione], the IC50 amounted to 15.1 ± 0.29 µM in data set [1] (setting [4]) and 30.2 ± 0.45 µM in data set [2] (setting [5]). The “log Kow” value in data set [3] was determined as 0.98 ± 0.08.
For `Cc1ccc(N2C(=O)C(=O)N([C@H](C)c3nc4ccc(F)cc4s3)C2=O)cc1Cl` [Compound 3h, 1-(3-Chloro-4-methylphenyl)-3-[(1R)-1-(6-fluoro-1,3-benzothiazol-2-yl)ethyl]imidazolidine-2,4,5-trione], the values for the IC50 in data set [1] and in data set [2] were 15.5 ± 0.2 µM and 17 ± 0.1 µM, respectively. In addition, the “log Kow” value in data set [3] came out at 0.50 ± 0.02.
As to `C[C@H](c1nc2ccc(F)cc2s1)N1C(=O)C(=O)N(c2cc(Cl)cc(Cl)c2)C1=O` [Compound 3j, 1-(3,5-Dichlorophenyl)-3-[(1R)-1-(6-fluoro-1,3-benzothiazol-2-yl)ethyl]imidazolidine-2,4,5-trione], the IC50 in data set [1] was 17 ± 0.38 µM; in data set [2], 29.5 ± 0.39 µM. The “log Kow” value in data set [3] is 0.77 ± 0.03.
Take `C[C@H](c1nc2ccc(F)cc2s1)N1C(=O)C(=O)N(Cc2ccccc2)C1=O` [Compound 3k, 1-Benzyl-3-[(1R)-1-(6-fluoro-1,3-benzothiazol-2-yl)ethyl]imidazolidine-2,4,5-trione]: the IC50 in data set [1] (setting [4]) turned out to be 18.6 ± 0.16 µM; in data set [2] (setting [5]), 12.6 ± 0.11 µM. The “log Kow” value in data set [3] stood at 1.06 ± 0.09.
